A short description of series [1]: Stability of the phosphonates and their esters during storage, by NMR. The settings on record: trisodium salts. The class given is physicochemical. The method, then: Stability of the purified phosphonates and their esterified precursor was analyzed by NMR after storage under the inert (pure argon) or ambient (air) atmosphere and in water solutions. ^1H, ^13C and ^31P NMR spectra were recorded at 400, 100.6, and 161.9 MHz, respectively with a Bruker Avance 400 spectrometer. Chemical shifts were calculated using D2O or CDCl3 as reference standards for trisodium salts and triesters, respectively. The spectra of the phosphonates and their esters before and after storage are shown in Supplementary Figures 1, 2 correspondingly.

Series [2] deals with T1, OGDH (Rattus norvegicus, UniProt Q5XI78).
T1 sequence (Q5XI78 41-1023): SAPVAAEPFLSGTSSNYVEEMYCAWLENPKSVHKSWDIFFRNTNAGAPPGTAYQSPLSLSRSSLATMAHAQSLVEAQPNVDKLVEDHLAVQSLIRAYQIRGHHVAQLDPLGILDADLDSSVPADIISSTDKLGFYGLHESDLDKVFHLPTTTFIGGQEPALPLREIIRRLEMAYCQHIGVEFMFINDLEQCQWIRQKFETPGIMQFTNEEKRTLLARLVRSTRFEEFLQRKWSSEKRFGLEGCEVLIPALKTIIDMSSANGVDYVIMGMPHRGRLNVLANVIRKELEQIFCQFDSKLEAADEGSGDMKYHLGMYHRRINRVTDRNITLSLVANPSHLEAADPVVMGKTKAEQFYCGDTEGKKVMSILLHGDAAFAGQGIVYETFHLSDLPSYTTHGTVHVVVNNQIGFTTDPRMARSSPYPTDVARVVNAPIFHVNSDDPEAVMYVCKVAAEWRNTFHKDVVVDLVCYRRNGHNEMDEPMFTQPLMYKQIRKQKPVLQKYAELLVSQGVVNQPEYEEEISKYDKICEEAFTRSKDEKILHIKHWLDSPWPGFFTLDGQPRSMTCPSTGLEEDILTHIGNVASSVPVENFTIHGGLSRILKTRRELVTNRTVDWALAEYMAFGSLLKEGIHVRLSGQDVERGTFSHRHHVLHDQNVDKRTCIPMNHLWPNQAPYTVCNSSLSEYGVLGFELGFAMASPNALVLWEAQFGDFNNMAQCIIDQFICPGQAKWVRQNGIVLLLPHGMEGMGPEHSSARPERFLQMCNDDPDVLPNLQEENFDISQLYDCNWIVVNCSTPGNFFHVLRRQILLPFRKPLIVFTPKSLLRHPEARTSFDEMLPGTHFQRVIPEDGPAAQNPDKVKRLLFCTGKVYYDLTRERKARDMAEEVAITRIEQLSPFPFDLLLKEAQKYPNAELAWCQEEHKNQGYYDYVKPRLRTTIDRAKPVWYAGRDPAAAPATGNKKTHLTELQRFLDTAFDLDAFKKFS
T1 sequence (Q01205 69-454 partner): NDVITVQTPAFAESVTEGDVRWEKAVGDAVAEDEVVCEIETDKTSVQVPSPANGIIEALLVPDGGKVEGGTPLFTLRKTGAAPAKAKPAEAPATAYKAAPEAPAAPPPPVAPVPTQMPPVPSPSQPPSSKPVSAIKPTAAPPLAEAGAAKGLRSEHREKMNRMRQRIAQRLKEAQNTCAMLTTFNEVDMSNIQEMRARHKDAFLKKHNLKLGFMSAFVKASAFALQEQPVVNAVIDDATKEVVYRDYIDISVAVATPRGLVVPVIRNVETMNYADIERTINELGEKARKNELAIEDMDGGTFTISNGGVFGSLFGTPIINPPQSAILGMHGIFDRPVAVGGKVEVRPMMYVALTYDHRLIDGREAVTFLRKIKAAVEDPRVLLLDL
T1 sequence (Q6P6R2 36-509 partner): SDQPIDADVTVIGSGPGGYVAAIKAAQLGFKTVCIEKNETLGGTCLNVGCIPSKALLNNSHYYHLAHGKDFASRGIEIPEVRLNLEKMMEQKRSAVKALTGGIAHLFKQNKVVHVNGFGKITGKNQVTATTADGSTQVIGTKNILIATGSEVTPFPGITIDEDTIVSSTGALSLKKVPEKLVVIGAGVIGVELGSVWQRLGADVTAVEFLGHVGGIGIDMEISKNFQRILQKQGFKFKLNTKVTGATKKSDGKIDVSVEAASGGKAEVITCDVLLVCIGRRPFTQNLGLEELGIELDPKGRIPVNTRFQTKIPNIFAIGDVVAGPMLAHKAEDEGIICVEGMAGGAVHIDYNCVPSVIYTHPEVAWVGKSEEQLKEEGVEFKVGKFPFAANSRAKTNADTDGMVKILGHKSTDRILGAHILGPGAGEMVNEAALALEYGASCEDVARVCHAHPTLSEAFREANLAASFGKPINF
Put plainly: OGDH reaction (OG saturation) catalyzed by the enzyme preparation from rat liver. The class given is biochemical. On the set-up: the tissue fractions with the complexes enriched to a degree allowing for a robust detection of the enzymatic activities, have been used; from tissue. The method, then:
Reactions were started by addition of the enzyme preparations to the assay media. The amount of enzyme preparations (0.074 mg protein for the preparation from liver and 0.023 mg protein for the preparation from heart) were chosen to induce the lowest reliably measured reaction rate (ΔA340 = 0.001/min) at 0.01 mM OA without the phosphonates.
Reaction rates were calculated from linear parts of the product accumulation curves (up to 10 min, dependent on the reaction rate), excluding the initial region, where mixing the reagents and solubilization of the preparation affected the optical density.
The former equation describes one type of the active sites. […] The assumption was based on the presence of the two enzymes, OGDH and OADH, in the employed preparations.
The Km and Amax values obtained in independent experiments using the non-linear and linear regression analyses of the experimental data, were averaged and presented as Mean ± Standard Error of Mean.
The values of Ki were determined as the ratio of the corresponding Intercepts to the Slopes. In the two-site model, the Ki(1) and Ki(2) were calculated separately from the linear approximations of Km,1eff/Amax,1eff vs. [I] and Km,2eff/Amax,2eff vs. [I] dependences, respectively. […] The Ki values obtained from the non-linear and linear regression analyses of the experimental data were averaged and presented as Mean ± Standard Error of Mean.

Where [3] appears, read: Eadie-Hofstee, read-out: Ki, EH.
Where [4] appears, read: Lineweaver-Burk, read-out: Ki, LB.
The mark [5] stands for this setting: Michaelis-Menten approximation, read-out: Ki, MM.
[6] abbreviates: average of MM, LB, EH, read-out: Ki, Average.

Molecules are shown by their SMILES. Read-outs that look alike come from different tables or passages of the source.

These results are taken from PMC7835950 (Frontiers in Chemistry, 2021).

The term Ki denotes the dissociation constant of the complex between target and ligand, obtained from inhibition or displacement. In the case of `O=C(O)CCCC(=O)P(=O)(O)O` [GP, glutaryl phosphonate], the “stability upon the shelf storage” value in series [1] is “high stability”. In addition, the Ki in series [2] (setting [3]) stood at 6.2 ± 0.1 µM; in series [2] (setting [4]), 5.6 ± 0.1 µM; in series [2] (setting [5]) it was 7.3 ± 0.4 µM; in series [2] (setting [6]), 6.3 ± 0.5 µM. Moreover, the Amax is 0.045 ± 0.001 µmol/min per mg of protein in series [2] ([I] 2 µM), 0.045 ± 0.001 µmol/min per mg of protein in series [2] ([I] 10 µM), 0.044 ± 0.001 µmol/min per mg of protein in series [2] ([I] 50 µM) and 0.066 ± 0.011 µmol/min per mg of protein in series [2] ([I] 200 µM).

Turning to `O=C(O)CCCCC(=O)P(=O)(O)O` [AP, adipoyl phosphonate], the “stability upon the shelf storage” value in series [1] is on record as “high stability”. In addition, the Ki in series [2] (setting [3]) was 326 ± 19 µM; in series [2] (setting [4]), 361 ± 36 µM; in series [2] (setting [5]), 405 ± 11 µM; in series [2] (setting [6]) it was 364 ± 23 µM. Further, the Amax is given as 0.040 ± 0.001 µmol/min per mg of protein in series [2] ([I] 0.5 µM); 0.042 ± 0.001 µmol/min per mg of protein in series [2] ([I] 2 µM); 0.042 ± 0.001 µmol/min per mg of protein in series [2] ([I] 10 µM); 0.042 ± 0.001 µmol/min per mg of protein in series [2] ([I] 50 µM); 0.045 ± 0.001 µmol/min per mg of protein in series [2] ([I] 200 µM); 0.049 ± 0.001 µmol/min per mg of protein in series [2] ([I] 1000 µM). The Amax in series [2] ([I] 5000 µM) is 0.039 ± 0.004 µmol/min per mg of protein.

As to `O=C(O)CCC(=O)P(=O)(O)O` [SP, succinyl phosphonate], the “stability upon the shelf storage” value in series [1] was “high stability”. Further, the Ki in series [2] (Ki, Average, average of MM, LB, EH) amounted to 7.4 ± 1.4 µM; in series [2] (Ki, EH, Eadie-Hofstee) it was 7.7 ± 0.1 µM; in series [2] (Ki, LB, Lineweaver-Burk), 4.9 ± 0.1 µM; in series [2] (Ki, MM, Michaelis-Menten approximation) it was 9.6 ± 0.2 µM. Besides, the Amax in series [2] ([I] 10 µM) is listed as 0.043 ± 0.001 µmol/min per mg of protein; in series [2] ([I] 50 µM), 0.041 ± 0.001 µmol/min per mg of protein; in series [2] ([I] 200 µM), 0.038 ± 0.002 µmol/min per mg of protein; in series [2] ([I] 1000 µM), 0.019 ± 0.002 µmol/min per mg of protein.
